Test results from patent US10040783B2 (Emory University, priority 2011, dated 2018).
“Also recorded” adds a separate entry of the source. Where two headings read alike, the source gives them in different places.

What was measured:
[1] = test system: rat primary hippocampal cultures; test: NMDA-induced LDH release (excitotoxicity) in primary hippocampal cultures; format: cell-based; settings: for activity at 10 µM: 10 μM compound
Excerpt: Excitotoxicity caused by NMDA receptor activation is recognized to induce neuronal apoptosis both in vitro and in vivo in cortical neurons. NMDA receptor activation can, via COX-2, cause prostaglandin production, including PGE2. Activation of the EP2 receptor by PGE2 in microglia can promote neuroinflammation in several models of neurodegenerative diseases. The effect of EP2 antagonist compounds were examined on NMDA-induced excitotoxicity. Rat primary hippocampal cultures (DIV13-15) were preincubated with vehicle or increasing concentrations of test compound for 15-20 min, followed by treatment with NMDA (30 μM) plus glycine (10 μM) overnight in continued presence of the test compound. Lactate dehydrogenase (LDH) release was used as the measure of neuronal injury.

EP2 receptor [2] = molecular target: T1, EP2 receptor (Homo sapiens, UniProt P43116); test: Schild regression of PGE2-induced EP2 activation in C6G-EP2 cells; format: cell-based; set-up: expressed in transfected cells; host or cells: C6G-EP2 cells; settings: for Schild plot slope: PGE2; for Modality of antagonism on EP2 receptor: Schild plots
T1 sequence (P43116 whole entry): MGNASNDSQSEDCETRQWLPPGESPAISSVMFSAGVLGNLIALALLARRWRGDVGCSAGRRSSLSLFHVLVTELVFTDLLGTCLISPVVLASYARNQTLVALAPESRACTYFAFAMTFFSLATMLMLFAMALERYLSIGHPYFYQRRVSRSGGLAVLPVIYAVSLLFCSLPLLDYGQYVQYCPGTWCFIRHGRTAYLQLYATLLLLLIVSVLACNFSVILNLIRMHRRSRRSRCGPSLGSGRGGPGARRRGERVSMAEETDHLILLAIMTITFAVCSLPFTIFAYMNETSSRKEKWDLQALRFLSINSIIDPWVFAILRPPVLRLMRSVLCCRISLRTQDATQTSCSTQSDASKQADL
Method: (§1) Information on the modality of antagonism can be obtained by performing Schild regression analysis characterized by: log (dr−1)=log XB−log KB. In the equation, dose ratio (dr)=fold shift in EC50, XB=[antagonist], KB=equilibrium dissociation constant for the antagonist-receptor complex. […] Thus, a lower KB value indicates a higher inhibitory potency.
To perform the Schild regression, C6G-EP2 cells were incubated first with vehicle, 0.01, 0.1 or 1 μM of test compound for 5 minutes, then with increasing concentrations of PGE2 to activate the EP2 receptor.

C6G cells = test: CellTiter-Glo luminescent cell viability assay (cytotoxicity)
in vitro = settings: rat; for CC50 at 48 h: C6G cells
EP4 receptor = EP4 receptor (Homo sapiens, UniProt P35408); test: Schild regression analysis for EP4 receptor; format: cell-based; settings: for Kb: read-out: KB (μM) EP4, from Schild regression analysis
Chain of EP4 receptor (P35408 whole entry): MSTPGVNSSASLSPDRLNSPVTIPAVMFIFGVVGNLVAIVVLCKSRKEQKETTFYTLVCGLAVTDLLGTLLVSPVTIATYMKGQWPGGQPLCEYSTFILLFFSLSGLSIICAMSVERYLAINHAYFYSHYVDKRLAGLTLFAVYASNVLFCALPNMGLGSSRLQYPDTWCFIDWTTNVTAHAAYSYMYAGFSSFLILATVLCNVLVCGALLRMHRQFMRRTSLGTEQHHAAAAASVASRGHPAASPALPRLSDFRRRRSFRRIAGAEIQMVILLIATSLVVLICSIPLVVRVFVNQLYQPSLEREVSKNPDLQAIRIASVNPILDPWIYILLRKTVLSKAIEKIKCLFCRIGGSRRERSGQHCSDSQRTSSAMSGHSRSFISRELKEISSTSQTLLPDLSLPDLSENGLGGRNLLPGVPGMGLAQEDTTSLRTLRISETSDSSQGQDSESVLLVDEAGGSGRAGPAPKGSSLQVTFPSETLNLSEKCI
Excerpt: as §1

EP2 receptor [3] = molecular target: T1, EP2 receptor; test: Butaprost-induced cAMP accumulation in PC3 cells; format: cell-based; set-up: PC3 cells express a substantially higher level of EP2 than DU145 and LNCap cells; endogenous in cells; host or cells: PC3 cells; settings: concentration-dependent
Excerpt: (§2) PGE2/EP2 signaling has been recognized to play important roles in mediating tumor progression and tumor-associated angiogenesis.

PC3 cells [4] = test: MTT cell proliferation assay, butaprost-promoted growth; format: cell-based
Excerpt: as §2

[5] = test system: iNOS, COX-2, IL-1β and IL-6 expression; test: qRT-PCR of inflammatory mediators in microglia-enriched cultures; format: cell-based, rat
Excerpt: Nitric oxide (NO) synthesized by iNOS and prostaglandins produced by COX-2 are effectors of neurotoxicity and neuroinflammation, thus, these two inducible enzymes have been recognized as inflammatory mediators produced in activated microglia. As the dominant enzymatic product of COX-2, PGE2 therefore might play a role in microglia-mediated neuroinflammation and neurodegeneration.

PC3 cells [6] = test: Cell invasion across Matrigel-coated filter; format: cell-based; settings: for Effect on PC3 cell invasion (cells moved across Matrigel-coated filter): butaprost 1 μM
Excerpt: as §2

human DP1 receptors = molecular target: T2, human DP1 receptors (Homo sapiens, UniProt Q13258); test: DP1 assay: BW245C-induced cAMP, TR-FRET, in C6G cells expressing DP1; format: cell-based; settings: agonist BW245C
T2 construct: expressed in transfected cells
T2 sequence (Q13258 1-359): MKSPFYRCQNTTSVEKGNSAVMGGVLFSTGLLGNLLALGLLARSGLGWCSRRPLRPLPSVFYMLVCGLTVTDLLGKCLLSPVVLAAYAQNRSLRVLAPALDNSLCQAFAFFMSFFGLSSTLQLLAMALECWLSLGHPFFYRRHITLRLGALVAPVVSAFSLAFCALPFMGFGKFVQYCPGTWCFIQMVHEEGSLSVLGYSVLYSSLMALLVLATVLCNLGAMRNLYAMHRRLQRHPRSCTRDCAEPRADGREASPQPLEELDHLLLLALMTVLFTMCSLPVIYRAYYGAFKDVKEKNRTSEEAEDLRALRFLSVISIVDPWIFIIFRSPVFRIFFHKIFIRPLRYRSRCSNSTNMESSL
Method: DP1 Assay Both DP1 and EP2 receptors are positively coupled through Gαs to cAMP production and conduct very similar physiological and pathological events. Among the eight canonical prostanoid receptors, DP1 has similarities to EP2 at both protein and DNA level. C6G cells that stably expressing human DP1 receptors were seeded into 384-well plates in 30 μL complete medium (4,000 cells per well) and grown overnight. The medium was thoroughly withdrawn and 10 μL HBSS (HyClone) plus 20 μM rolipram were added into the wells to block phosphodiesterase. […] The cells were lysed in 10 μL lysis buffer containing the FRET acceptor cAMP-d2 and 1 min later another 10 μL lysis buffer with anti-cAMP-Cryptate was added. […] The FRET signal is expressed as F665/[…].

[7] = test system: rat microglia-enriched cultures; test: LDH release in microglia-enriched cultures; format: cell-based; settings: 10 μM, overnight, basal
Method: Microglia are the initial and major mediators of neuroinflammation and neurodegeneration in various models of neurological disorders. EP2 receptor has been reported to regulate microglial activation and subsequent neurotoxicity in several animal models. The effects of EP2 activation in microglia were investigated. Rat microglia-enriched cultures were incubated with vehicle, butaprost, or compound A1 overnight. The cellular viability was evaluated by measuring Lactate dehydrogenase (LDH) release.

[8] = Rattus norvegicus, NMDA 30 μM plus glycine 10 μM overnight, read-out: NMDA-induced LDH release, % of control
[9] = C6G-EP2 cells, PGE2 as agonist, read-out: KB (nM) EP2, from Schild regression analysis
[10] = additional compounds tables, read-out: EP2 KB

Kb (EP2 receptor [2]; [9])	Selective index, KB EP4/KB EP2 (EP4 receptor)	Kb (EP4 receptor)	Kb (EP2 receptor [2]; [10])	Kb (human DP1 receptors)	SMILES	activity at 10 µM [1, 8]	Therapeutic index (in vitro), CC50/KB for EP2 (C6G cells)	CC50 at 48 h (in vitro)	other results
2.1 nM	2,600	5.4 µM	–	–	COc1cc(C=CC(=O)NCCn2c(C)cc3cc(F)ccc32)cc(OC)c1OC [1f, N-(2-(5-fluoro-2-methyl-1H-indol-1-yl)ethyl)-3-(3,4,5-trimethoxyphenyl)acrylamide]	38.5%	73,800	155 µM	–
1.9 nM	2,470	4.7 µM	–	–	COc1ccc(/C=C/C(=O)NCCn2c(C)cc3ccccc32)cc1Cl [1w]	78.4%	253,000	481 µM	–
–	–	–	–	–	COc1cc(C=CC(=O)NCCn2c(C)cc3ccccc32)cc(OC)c1OC [A1, N-(2-(2-methyl-1H-indol-1-yl)ethyl)-3-(3,4,5-trimethoxyphenyl)acrylamide]	50.8%	–	–	activity at 0.01 µM ([1]; Rattus norvegicus, 0.01 μM compound, NMDA 30 μM plus glycine 10 μM overnight, read-out: NMDA-induced LDH release, % of control): 94%; activity at 0.1 µM ([1]; Rattus norvegicus, 0.1 μM compound, NMDA 30 μM plus glycine 10 μM overnight, read-out: NMDA-induced LDH release, % of control): 87.8%; activity at 1 µM ([1]; Rattus norvegicus, 1 μM compound, NMDA 30 μM plus glycine 10 μM overnight, read-out: NMDA-induced LDH release, % of control): 73.9%; EC50 ([1]; rat hippocampal cultures, read-out: EC50 for the reduction of NMDA-induced LDH release): 0.8 µM; Schild plot slope (EP2 receptor [2]; C6G-EP2 cells): 1.0; Modality of antagonism on EP2 receptor (EP2 receptor [2]): competitive antagonism; Inhibition of butaprost-induced EP2 receptor activation (EP2 receptor [3]): robust competitive inhibition; Effect on butaprost-induced PC3 cell growth (PC3 cells [4]; concentration-dependent): attenuated; Effect on butaprost-induced upregulation of inflammatory mediators ([5]; 0.1-10 μM, concentration-dependent): inhibited; also recorded: attenuated; Effect on PC3 cell invasion promoted by EP2 activation (PC3 cells [6]; cotreatment 1 μM with butaprost 1 μM): inhibited; also recorded: blocked; CC50 (in vitro): 172 µM
4.6 nM	435	2 µM	–	–	COc1ccc(C=CC(=O)NCCn2c(C)cc3ccccc32)cc1OC [A2, 3-(3,4-dimethoxyphenyl)-N-(2-(2-methyl-1H-indol-1-yl)ethyl)acrylamide]	77.8%	86,300	397 µM	Schild plot slope (EP2 receptor [2]; C6G-EP2 cells): 1.1; Modality of antagonism on EP2 receptor (EP2 receptor [2]): competitive antagonism
–	–	–	6 nM	0.227 µM	COc1ccc(/C=C/C(=O)NCCc2c(C)[nH]c3ccccc23)cc1OC [TG7-76]	–	–	–	–
–	–	–	4.4 nM	0.745 µM	Cc1cc(/C=C/C(=O)NCCn2c(C)cc3ccccc32)cc(C)c1F [TG7-98, 3-(4-fluoro-3,5-dimethylphenyl)-N-(2-(2-methyl-1H-indol-1-yl)ethyl)acrylamide]	–	–	–	–
–	–	–	–	1.43 µM	COc1ccc(C(=O)NCCn2c(C)cc3ccccc32)cc1OC [TG7-112-2, 3,4-dimethoxy-N-(2-(2-methyl-1H-indol-1-yl)ethyl)benzamide]	–	–	–	–
–	–	–	83 nM	5.83 µM	CC(=O)Nc1ccc(C(=O)NCCn2c(C)cc3ccccc32)cc1 [TG7-117, 4-acetamido-N-(2-(2-methyl-1H-indol-1-yl)ethyl)benzamide]	–	–	–	–
–	–	–	–	–	CCCC1([C@H](O)C/C=C/[C@H]2[C@H](O)CC(=O)[C@@H]2CCCCCCC(=O)OC)CCC1 [butaprost]	–	–	–	Concentration giving maximal response of PC3 cell growth (PC3 cells [4]): 1 µM; Effect of EP2 activation on PC3 cell growth (PC3 cells [4]): promoted PC3 cell growth; LDH release compared to control [7]: 138%; COX-2 expression increase ([5]; butaprost 1 μM, qRT-PCR): 16.3 fold; IL-1β expression increase ([5]; butaprost 1 μM, qRT-PCR): 1.8 fold; IL-6 expression increase ([5]; butaprost 1 μM, qRT-PCR): 11.1 fold; iNOS expression increase ([5]; butaprost 1 μM, qRT-PCR): 3.4 fold; Effect on PC3 cell invasion (cells moved across Matrigel-coated filter) (PC3 cells [6]): promoted cell invasion; Effect on PC3 cell invasion (cells moved across Matrigel-coated filter) (PC3 cells [6]; listed as Butaprost): significantly increased

SMILES	Kb (EP2 receptor [2]; [9])	Selective index, KB EP4/KB EP2 (EP4 receptor)	Kb (EP4 receptor)	Kb (EP2 receptor [2]; [10])	Kb (human DP1 receptors)	activity at 10 µM [1, 8]	Therapeutic index (in vitro), CC50/KB for EP2 (C6G cells)	CC50 at 48 h (in vitro)	other results
COc1cc(/C=C/C(=O)NCCc2c(C)[nH]c3ccccc23)cc(OC)c1OC [TG7-74]	–	–	–	2.9 nM	0.112 µM	–	–	–	–
